US20210380988A1, “Reducing Prominin2-Mediated Resistance to Ferroptotic Cell Death” (University of Massachusetts, priority 2020, published 2021)
Where a SMILES comes first, the peptide text is derived from it. The star is where a group is joined. Cbz = O=C(OCc1ccccc1)*; CH2F = FC*

Assays:
Type in all cases: cell-based
Hs578t cells [1] = assay: Survival of adherent cells in response to GPX4 inhibition (crystal violet); conditions: for sensitivity to compound in prominin2 knock-down cells compared to control cells: prominin2 siRNA 48 hours, compound 24 hrs
Experimental: (§1) Cell-based assays: Assays to assess survival in response to matrix detachment were performed as described (Brown C W, 2017). To assay survival in response to GPX4 inhibition, adherent cells in 96 well plates (1.0×10^4 per well) were treated with either DMSO, RSL3, ML210, FIN56 or erastin for 24 hrs with and without ferrostatin-1 or DFO. Subsequently, cells were fixed in 4% paraformaldehyde (Boston BioProducts), stained with crystal violet (Sigma) and read on a microplate reader (Beckman Colter) at absorbance 595. Absorbances were normalized to DMSO.

MCF10A cells [2] = assay: as above; conditions: for sensitivity to compound in prominin2 knock-down cells compared to control cells: prominin2 siRNA 48 hours, compound 24 hrs
Experimental: as §1

Hs578t cells [3] = assay: Survival in response to matrix (ECM) detachment; conditions: 24 hrs, ferrostatin-1 (2 μM), ZVAD-fmk (25 μM), deferoxamine
Experimental: as §1

MCF10A cells [4] = assay: Survival in response to matrix (ECM) detachment; conditions: 24 hrs, ferrostatin-1 (2 μM), ZVAD-fmk (25 μM), deferoxamine
Experimental: as §1

HSF1 [5] = assay: HSF1 mRNA, protein, S326 phosphorylation and nuclear localization in MCF10A cells; conditions: for time after treatment at which the increase in HSF1 mRNA peaked: 25 uM 4HNE or 5 uM RSL3; for expression of HSF1 mRNA by qPCR: 25 uM 4HNE or 5 uM RSL3, 0 to 120 minutes; for HSF1 protein expression and phosphorylation at S326: after 60 minutes of exposure
Experimental: (§2) Biochemical experiments: Immunoblotting and qPCR were performed as described (Brown C W, 2017). Briefly, for immunoblotting, cell lysates were extracted using radioimmunoprecipitation assay (RIPA) buffer (Boston Bioproducts). Extracts were separated by SDS PAGE using the specified antibodies. Immunoprecipitation was performed on lysates isolated using NP-40 buffer (Boston Bioproducts). Lysates were pre-cleared prior to overnight incubation with the primary antibody and protein A agarose beads (Sigma-Aldrich). Immune complexes were separated by SDS PAGE and immunoblotted as described in figure legends. RNA was isolated from cells (BioBasic) and cDNA was generated using the All in One cDNA Synthesis SuperMix (BioScript Solutions). qPCR was performed using a SYBR green master mix (BioScript Solutions). Sequences for primers used were as follows: […]
(§3) Immunofluorescence microscopy: For adherent cells, 8 well chamber slides (Mattek) were coated with 1 μg/mL laminin (Invitrogen). Cells (5.0×10^4 per well) were plated overnight and then treated for two hours with either DMSO or RSL3, fixed in 4% paraformaldehyde and permeabilized in 0.1% Triton (JT Baker). Slides were blocked in 0.5% BSA (Boston Bioproducts), incubated in antibody overnight at 4° C., washed in PBS and incubated in secondary antibody for 1 hr at room temperature. Slides were washed and mounted in Vectashield with DAPI (Vector Labs). For ECM-detached experiments, cells were trypsinized and plated (5.0×10^5 per well) in 60 mm low-adherent plates (Sumitomo Bakelite) for two hr, collected and spun down prior to being fixed and stained as described above. Slides were imaged on a Zeiss or a Nikon A-1 confocal microscope.

MDA-MB-231 cells [6] = assay: Survival of adherent cells in response to GPX4 inhibition (crystal violet); conditions: for cell death in response to compound with exogenous prominin2 expression: MDA-MB-231, prominin2 expression construct vs vector control
Experimental: as §1

prominin2 [7] = assay: PROM2 mRNA (qPCR) and prominin2 protein (immunoblot) expression in MCF10A cells; conditions: for prominin2 mRNA and protein expression: adherent MCF10A, 2 hrs, 5 μM RSL3, 250 μM H2O2
Experimental: as §2

prominin2 [8] = assay: PROM2 mRNA (qPCR) and prominin2 protein (immunoblot) expression in Hs578t cells; conditions: adherent Hs578t, 2 hrs; 5 μM RSL3, 250 μM H2O2
Experimental: as §2

prominin2 [9] = assay: PROM2 mRNA (qPCR) and prominin2 protein (immunoblot) expression in MDA-MB-231 cells; conditions: adherent MDA-MB-231, RSL3 2 hrs
Experimental: as §2

prominin1 (CD133) = assay: PROM1 expression by qPCR; conditions: MCF10A and Hs578t cells, 5 μM RSL3, 2 hrs (FIG. 8A)
Experimental: as §2

Hs578t cells [10] = assay: Total free iron (Iron Assay Kit)
Experimental: (§4) Total free iron was quantified using the Iron Assay Kit (Abcam) per manufacturer's specifications. Briefly, adherent cells in 10 cm plates (1.0×10^6/well) were treated with either DMSO or RSL3 for 2 hrs, lysed and supernatant was reduced using the provided iron reducer before the mixture was reacted with an iron probe. Plates were read at 595 nm and total iron concentration was obtained using an iron standard curve.

MCF10A cells [11] = assay: Total free iron (Iron Assay Kit)
Experimental: as §4

MDA-MB-231 cells [12] = assay: Total free iron (Iron Assay Kit); conditions: MDA-MB-231 vector control, RSL3 2 hrs; prevented by prominin2 expression
Experimental: as §4

MCF10A cells [13] = assay: Multivesicular body formation (TSG101 immunofluorescence, TEM)
Experimental: as §3
Transmission Electron Microscopy: Adherent siControl and siProminin2 cells were treated with DMSO or RSL3 (5 μM) for two hr. ECM-detached siControl and siProminin2 cells were maintained for 2 hrs in low-adherence plates. All cells were fixed by adding 2.5% glutaraldehyde (v/v) in 0.1 M Na cacodylate buffer (pH 7.2) and processed for TEM. The samples were examined on a FEI Tecnai 12 BT transmission electron microscope using 100 Kv accelerating voltage. Images were captured using a Gatan TEM CCD camera.

Hs578t cells [14] = assay: Multivesicular body formation (TSG101 immunofluorescence); conditions: RSL3 2 hrs
Experimental: as §3

MCF10A and Hs578t cells = assay: Exosome isolation by ultracentrifugation (protein, ICP-MS iron)
Experimental: Exosome isolation: Cells were cultured for 24 hrs in their respective media containing extracellular vesicle (EV) free serum and treated with RSL3 for 24 hours. Culture supernatants were centrifuged at 4° C. at 1000 RPM for 5 min, 3000 RPM for 10 min, 4000 RPM for 30 min prior to ultracentrifugation at 22,000 RPM for 140 min at 4° C. Pellets were resuspended in cold PBS and centrifuged again under the same conditions. For immunoblotting, pellets were lysed in RIPA buffer, centrifuged at 10,000 RPM for 15 min and protein concentration was determined by Bradford Assay (BioRad). For TEM, PBS was removed and 20 μL of the exosome preparation was fixed and processed. For ICP-mass spec, exosome-containing pellet was resuspended in 0.5 mL PBS and centrifuged in a speed-vac at 45° C. Samples were sent to the UMASS Mass Spectrometry Core where they were digested in 100 μL HNO3, heated to 65° C. for 20 min and diluted to 2 mL with ddH2O before analysis.

HSF1 [15] = assay: HSF1 mRNA, protein, S326 phosphorylation and nuclear localization in MCF10A cells; conditions: after 60 minutes of exposure

SMILES: Cl.N [NH4Cl]
- effect on cell survival following GPX4 inhibition (Hs578t cells [1]; Hs578t, 20 mM NH4Cl pre-treatment 60 min, then with RSL3 24 hrs (FIG. 10D)): had no effect on cell survival

SMILES: CCOC(=O)c1ccc(NC2CCCCC2)c(N)c1 [ferrostatin-1]
- rescue of cell death triggered by GPX4 inhibition in FTH1 and FTL knock-down cells (Hs578t cells [1]; Hs578t, RSL3 24 hrs, 100 uM deferoxamine): rescued
- rescue of loss of cell viability in prominin2-depleted cells (Hs578t cells [1]; Hs578t, RSL3 (5 μM) and ferrostatin-1 (2 μM), 24 hrs): completely rescued
- rescue of cell death triggered by GPX4 inhibition in FTH1 and FTL knock-down cells (MCF10A cells [2]; MCF10A, RSL3 24 hrs, 100 uM deferoxamine): rescued
- rescue of loss of cell viability in prominin2-depleted cells (MCF10A cells [2]; MCF10A, RSL3 (5 μM) and ferrostatin-1 (2 μM), 24 hrs): completely rescued
- rescue of RSL3-induced cell death in cells with diminished TSG101 expression (MCF10A cells [2]; MCF10A, TSG101 siRNA 48 hours, RSL3 and ferrostatin-1 24 hrs (FIG. 4C)): rescued
- rescue of cell viability of ECM-detached prominin2-silenced cells by co-treatment (Hs578t cells [3]): rescued
- rescue of cell viability of ECM-detached prominin2-silenced cells by co-treatment (MCF10A cells [4]): rescued

SMILES: Cc1ccc(-n2nc(C(C)(C)C)cc2NC(=O)Nc2ccc(OCCN3CCOCC3)c3ccccc23)cc1 [BIRB]
- induction and phosphorylation of HSF1 following 4HNE or RSL3 treatment (HSF1 [5]; 10 uM BIRB pretreatment): prevented the induction and phosphorylation of HSF1
- increase in HSF1 expression and nuclear localization, treatment prior to 4HNE or RSL3 (HSF1 [5]; 10 uM BIRB pretreatment 15 minutes): significantly reduced the increase in expression and nuclear localization
- 4HNE- or RSL3-driven increase in HSF1 expression on p38 inhibition (HSF1 [5]; pre-treated with 10 uM BIRB, after 30 minutes of treatment): reduced the 4HNE- or RLS3-driven increase in HSF1 to basal levels

SMILES: O=S(=O)(NC1CCCCC1)c1ccc2c(c1)C(=NO)c1cc(S(=O)(=O)NC3CCCCC3)ccc1-2 [FIN56]
- sensitivity to compound in prominin2 knock-down cells compared to control cells (Hs578t cells [1]; Hs578t): significant increase in sensitivity
- sensitivity to compound in prominin2 knock-down cells compared to control cells (MCF10A cells [2]; MCF10A): significant increase in sensitivity
- cell death in response to compound with exogenous prominin2 expression (MDA-MB-231 cells [6]): sufficient to inhibit cell death

SMILES: COC(=O)c1ccc([C@@H]2c3[nH]c4ccccc4c3C[C@@H](C(=O)OC)N2C(=O)CCl)cc1 [RSL3]
- sensitivity to compound in prominin2 knock-down cells compared to control cells (Hs578t cells [1]; Hs578t): significant increase in sensitivity
- RSL3 concentrations at which cells were resistant to RSL3-induced cell death (Hs578t cells [1]; adherent Hs578t, 24 hrs, FIG. 1F): up to 2.5
- sensitivity to compound in prominin2 knock-down cells compared to control cells (MCF10A cells [2]; MCF10A): significant increase in sensitivity
- RSL3 concentrations at which cells were resistant to RSL3-induced cell death (MCF10A cells [2]; adherent MCF10A, 24 hrs, FIG. 1F): up to 2.5
- cell death in response to compound with exogenous prominin2 expression (MDA-MB-231 cells [6]): sufficient to inhibit cell death
- RSL3 concentrations by which cells were killed (MDA-MB-231 cells [6]; adherent MDA-MB-231, 24 hrs, FIG. 1F): ≥ 0.5 µM
- prominin2 mRNA and protein expression (prominin2 [7]): increased prominin2 mRNA and protein expression
- prominin2 mRNA and protein expression (prominin2 [8]): increased prominin2 mRNA and protein expression
- induction of prominin2 (prominin2 [9]): did not induce prominin2
- expression of prominin1 (CD133) (prominin1 (CD133)): not altered significantly
- time after treatment at which the increase in HSF1 mRNA peaked (HSF1 [5]): 15 min
- expression of HSF1 mRNA by qPCR (HSF1 [5]): significant increase
- HSF1 protein expression and phosphorylation at S326 (HSF1 [5]): increased HSF1 protein expression levels as well as phosphorylation at S326
- free iron concentration, RSL3-treated vs control cells (Hs578t cells [10]; 5 μM RSL3, 2 hrs): no significant difference
- concentration of free iron following RSL3 treatment when either prominin2 or both FTH1 and FTL were silenced (Hs578t cells [10]; siRNA 48 hrs, RSL3 2 hrs): increase
- free iron concentration, RSL3-treated vs control cells (MCF10A cells [11]; 5 μM RSL3, 2 hrs): no significant difference
- concentration of free iron following RSL3 treatment when either prominin2 or both FTH1 and FTL were silenced (MCF10A cells [11]; siRNA 48 hrs, RSL3 2 hrs): increase
- free iron in response to RSL3 in control cells (MDA-MB-231 cells [12]): increase in iron
- TSG101-positive structures vs vehicle control-treated cells (MCF10A cells [13]; RSL3 2 hrs): more TSG101-positive structures
- MVBs per cell by TEM vs control cells (MCF10A cells [13]; RSL3, effect not observed in prominin2-silenced cells): significantly more MVBs per cell
- TSG101-positive structures vs vehicle control-treated cells (Hs578t cells [14]): more TSG101-positive structures
- protein in the exosome preparation (MCF10A and Hs578t cells; 1 μM RSL3, 24 hours, exosomal protein in control cells not detected): significant amount of protein
- iron in exosomes by ICP-MS (MCF10A and Hs578t cells; exosomes harvested from RSL3-treated cells): 3400 ng per exosome collection sample
- HSF1 expression and nuclear localization (HSF1 [15]): increased

SMILES: CCCCCC(O)/C=C/C=O (centres unmarked) [4HNE, 4-hydroxynonenal]
- PROM2 transcription (prominin2 [7]; mechanism dependent upon HSF1, cell line not named at b183): stimulates PROM2 transcription
- time after treatment at which the increase in HSF1 mRNA peaked (HSF1 [5]): 15 min
- expression of HSF1 mRNA by qPCR (HSF1 [5]): significant increase
- HSF1 protein expression and phosphorylation at S326 (HSF1 [5]): increased HSF1 protein expression levels as well as phosphorylation at S326
- HSF1 expression and nuclear localization (HSF1 [15]): increased

SMILES: C#Cc1cccc(Nc2ncnc3cc(OCCOC)c(OCCOC)cc23)c1 [erlotinib]
- sensitivity to RSL3 on co-treatment with other therapeutics (MCF10A cells [2]; MCF10A, 100 nM Dasatinib or 25 uM Erlotinib with RSL3, 24 hours): did not significantly improve sensitivity

SMILES: COC(=O)C[C@H](NC(=O)[C@H](C)NC(=O)[C@@H](NC(=O)OCc1ccccc1)C(C)C)C(=O)CF [ZVAD-fmk] (Cbz-Val-Ala-Asp(OMe)-CH2F)
- rescue of cell viability of ECM-detached prominin2-silenced cells by co-treatment (Hs578t cells [3]): not
- rescue of cell viability of ECM-detached prominin2-silenced cells by co-treatment (MCF10A cells [4]): not

SMILES: OO [H2O2]
- prominin2 mRNA and protein expression (prominin2 [7]): did not increase prominin2 expression
- prominin2 mRNA and protein expression (prominin2 [8]): did not increase prominin2 expression

SMILES: O=C(/C=C/c1ccc(/C=C/C(=O)Nc2ccc(C3=NCCN3)cc2)cc1)Nc1ccc(C2=NCCN2)cc1 [GW4869]
- sensitivity of cells to RSL3 on inhibition of exosome release (Hs578t cells [1]; Hs578t, RSL3 (5 μM) and GW4869 (20 μM), 24 hrs): increased the sensitivity
- sensitivity of cells to RSL3 on inhibition of exosome release (MCF10A cells [2]; MCF10A, RSL3 (5 μM) and GW4869 (20 μM), 24 hrs): increased the sensitivity
